Laboratory results published in patent publication US20100190827A1, “POLYMORPHIC FORM OF RIMONABANT, METHOD FOR PREPARING IT AND PHARMACEUTICAL COMPOSITIONS CONTAINING IT” (SANOFI-AVENTIS, priority 2001, published 2010).
In brackets after ≈: the same amount, converted by molar mass. Like-named read-outs stand apart in the source and are kept apart here.

Assay: Solubility of the crystalline forms in methylcyclohexane (Mullin method)
Format: physicochemical
Settings: for solubility: methylcyclohexane, organic solvent or mixture, thermodynamic from solid, read-out: Solubility Concentration; for solubility / Solubility Concentration: at equilibrium; for Thermodynamic stability compared with form I: inferred from the lower solubility in methylcyclohexane, 10 °C to 70 °C
Procedure: The solubility of the 2 crystalline forms of rimonabant in the same solvent was also measured. The method used is described in Measurement of Solubility in J. W. Mullin. Crystallization: 3rd edition, Ipswich (GB): Butterworth-Heinemann, 1993, p. 105.
The measurements were carried out for each of the crystalline forms, in solution in methylcyclohexane at temperatures varying from 10° C. to 70° C. At equilibrium, for each temperature, the undissolved crystalline form is characterized by infrared spectrography, in particular by its main bands.

Row | solubility (10 °C, in methylcyclohexane, 10.00 °C) [mg/mL] | solubility (20 °C, in methylcyclohexane, 20.00 °C) [mg/mL] | solubility (30 °C, in methylcyclohexane, 30.00 °C) [mg/mL] | solubility (40 °C, in methylcyclohexane, 40.00 °C) [mg/mL] | solubility (50 °C, in methylcyclohexane, 50.00 °C) [mg/mL] | solubility (60 °C, in methylcyclohexane, 60.00 °C) [mg/mL] | solubility (70 °C, in methylcyclohexane, 70.00 °C) [mg/mL] | Solubility Concentration (in methylcyclohexane, 10.00 °C) [mg/mL] | Solubility Concentration (in methylcyclohexane, 20.00 °C) [mg/mL] | Solubility Concentration (in methylcyclohexane, 30.00 °C) [mg/mL] | Solubility Concentration (in methylcyclohexane, 40.00 °C) [mg/mL] | Solubility Concentration (in methylcyclohexane, 50.00 °C) [mg/mL] | Solubility Concentration (in methylcyclohexane, 60.00 °C) [mg/mL] | Solubility Concentration (in methylcyclohexane, 70.00 °C) [mg/mL] | Solubility compared with form I (in methylcyclohexane, all temperatures between 10 °C and 70 °C) | Thermodynamic stability compared with form I (listed as crystalline form II of rimonabant) | Structure (SMILES) | Thermodynamic stability compared with form I (listed as rimonabant form II)
1 | 4.86 (≈ 10.5 mM) | 6.92 (≈ 14.9 mM) | 9.3 (≈ 20.1 mM) | 13.7 (≈ 29.5 mM) | 20.4 (≈ 44 mM) | 31.2 (≈ 67.3 mM) | 52.4 (≈ 113 mM) |  |  |  |  |  |  |  |  |  | Cc1c(C(=O)NN2CCCCC2)nn(-c2ccc(Cl)cc2Cl)c1-c1ccc(Cl)cc1 [Form I, N-Piperidino-5-(4-chlorophenyl)-1-(2,4-dichlorophenyl)-4-methyl-3-pyrazolecarboxamide, reference compound] | 
2 |  |  |  |  |  |  |  | 4.50 (≈ 9.7 mM) | 6.60 (≈ 14.2 mM) | 9.20 (≈ 19.8 mM) | 12.60 (≈ 27.2 mM) | 19.00 (≈ 41 mM) | 29.20 (≈ 63 mM) | 42.00 (≈ 90.6 mM) | less soluble | stability greater than that of form I | Cc1c(C(=O)NN2CCCCC2)nn(-c2ccc(Cl)cc2Cl)c1-c1ccc(Cl)cc1 [Form II, N-piperidino-5-(4-chlorophenyl)-1-(2,4-dichlorophenyl)-4-methyl-3-pyrazolecarboxamide] | thermodynamically more stable than rimonabant form I
